According to patent US12528809B2, “Crystalline forms of gepotidacin” (GLAXOSMITHKLINE INTELLECTUAL PROPERTY DEVELOPMENT LIMITED, priority 2020, dated 2026):

Experiments:
[1] = Physical form stability / conversion to Form 1; assay type: physicochemical
Method: The suspension was heated with a heat gun to dissolve most of the solids, and then left to slowly cool to room temperature. The resultant crystals were filtered and analysed by DSC, TGA, and XRPD.
Amorphous gepotidacin mesylate can be generated via lyophilization. Form 1 (150 mg) was dissolved MeCN/water (80/20 v/v; 1 mL). A clarifying filtration was performed and the filtrate was added to a 20 mL vial. The solution was frozen under liquid nitrogen and lyophilized for 4 hours.

[2] = Moisture sorption/desorption isotherms (DVS); settings: first sorption cycle
Source text: The moisture sorption/desorption isotherms of gepotidacin mesylate dihydrate and gepotidacin HCl were obtained over a range of 5-90% relative humidity.

physical form stability ([1]; ambient conditions, listed as Gepotidacin Mesylate Anhydrate (Form 2)) | critical RH step [2] [% RH] | uptake of water ([2]; critical step at 60% RH, indicates conversion to Form 1) [%] | SMILES | physical form stability ([1]; ambient conditions) | physical form stability ([1]; amorphous by lyophilization from MeCN/water (80/20 v/v)) | physical form stability ([1]; amorphous by lyophilization of an aq. t-BuOH solution, ambient conditions)
unstable under ambient conditions | 60 | 4.8 | CS(=O)(=O)O.O.O.O=c1ccc2ncc(=O)n3c2n1C[C@H]3CN1CCC(NCc2cc3c(cn2)OCCC3)CC1 [Gepotidacin mesylate anhydrate (Form 2)] | convert to Gepotidacin mesylate dihydrate (Form 1) after one hour | – | –
– | – | – | CS(=O)(=O)O.O.O.O=c1ccc2ncc(=O)n3c2n1C[C@H]3CN1CCC(NCc2cc3c(cn2)OCCC3)CC1 [Amorphous gepotidacin mesylate] | – | started to convert to Form 1 unless stored in a sealed vial with desiccant | physically stable for at least three days
